Conditions: Liquid; for speed of sound: Pulse-echo method; for mass density: Vibrating tube method

CCCCCCCCCC(=O)OC [methyl decanoate]
Conditions | mass density, 293.15 K [kg/m3] | mass density, 303.15 K [kg/m3] | mass density, 313.15 K [kg/m3] | mass density, 323.15 K [kg/m3] | mass density, 333.15 K [kg/m3] | mass density, 343.15 K [kg/m3] | speed of sound, 283.15 K [m/s] | speed of sound, 303.15 K [m/s] | speed of sound, 323.15 K [m/s] | speed of sound, 343.15 K [m/s]
101.3 kPa | 872.05 | 863.6 | 855.85 | 847.65 | 839.36 | 830.82 | 1362.6 | 1287.7 | 1214.8 | 1142.8
10000 kPa | 878.88 | 870.96 | 863.12 | 855.36 | 847.25 | 839.54 | 1408.9 | 1339.2 | 1269.1 | 1202.4
20000 kPa | 885.04 | 877.43 | 869.91 | 862.49 | 854.44 | 847.61 | 1452.2 | 1385.8 | 1319.3 | 1255.9
30000 kPa | 890.91 | 883.54 | 876.23 | 869.02 | 861.45 | 854.58 | 1493.2 | 1429.6 | 1365.7 | 1304.9
40000 kPa | 896.46 | 889.26 | 882.19 | 875.03 | 867.94 | 861.37 | 1531.7 | 1470.3 | 1409 | 1350.5
50000 kPa | 901.66 | 894.61 | 887.77 | 880.76 | 873.98 | 867.59 | 1568 | 1508.7 | 1449.5 | 1393.5
60000 kPa | 906.63 | 899.63 | 893.04 | 886.55 | 879.63 | 873.44 | 1602.6 | 1544.9 | 1487.8 | 1433.7
70000 kPa | 911.3 | 904.55 | 898.12 | 891.71 | 885.02 | – | 1634.5 | 1580.2 | 1524 | 1471.7
80000 kPa | 915.52 | 909.11 | 902.9 | 896.69 | 890.12 | – | 1666.4 | 1614.1 | 1558.3 | –
90000 kPa | 920.05 | 913.59 | 907.5 | 901.4 | 894.95 | – | 1696.9 | 1646.1 | 1591.2 | –
100000 kPa | 924.3 | 917.87 | 911.9 | 905.81 | 899.64 | – | 1726.9 | 1676.9 | 1623.3 | –
110000 kPa | – | – | – | – | – | – | 1755.2 | 1706.8 | 1653.9 | –
120000 kPa | – | – | – | – | – | – | 1783.4 | 1735.1 | 1684.6 | –
130000 kPa | – | – | – | – | – | – | 1809.5 | 1762.8 | 1711.9 | –
140000 kPa | – | – | – | – | – | – | 1835.9 | 1789.2 | 1739.6 | –
150000 kPa | – | – | – | – | – | – | – | 1815.2 | 1765.9 | –
170000 kPa | – | – | – | – | – | – | – | 1864.9 | 1817 | –
190000 kPa | – | – | – | – | – | – | – | 1912.7 | 1864.8 | –
210000 kPa | – | – | – | – | – | – | – | 1957.6 | 1910.9 | –

Source: the NIST ThermoML archive (doi:10.1021/je300405a)
